Drawing on ChEMBL document CHEMBL5352419, “Design, synthesis, and biological evaluation of tetrahydroquinoline amphiphiles as membrane-targeting antimicrobials against pathogenic bacteria and fungi” (Eur J Med Chem, 2022), this text covers MIC and HC50 for eleven compounds.

For data set [1], the system named is Candida albicans. Nature of the data set: Antimicrobial activity against Candida albicans ATCC10231 assessed as fungal growth inhibition incubated for 48 hrs by Sabouraud Dextrose broth based dilution assay. The class given is functional.
For data set [2], the system named is Candida albicans. Nature of the data set: Antimicrobial activity against Candida albicans CMCC98001 assessed as fungal growth inhibition incubated for 48 hrs by Sabouraud Dextrose broth based dilution assay. The class given is functional.
Data set [3] relates to Staphylococcus aureus. Nature of the data set: Antimicrobial activity against Staphylococcus aureus ATCC29213 assessed as bacterial growth inhibition incubated for 24 hrs by Muller Hinton broth based dilution assay. The class given is functional.
The test system of data set [4] is Staphylococcus aureus. Nature of the data set: Antimicrobial activity against methicillin-resistant Staphylococcus aureus N315 assessed as bacterial growth inhibition incubated for 24 hrs by Muller Hinton broth based dilution assay. Type of data set: functional.
Data set [5] relates to Staphylococcus aureus. Nature of the data set: Antimicrobial activity against methicillin-resistant Staphylococcus aureus NCTC10442 assessed as bacterial growth inhibition incubated for 24 hrs by Muller Hinton broth based dilution assay. Type of data set: functional.
A further data set deals with Escherichia coli. Nature of the data set: Antimicrobial activity against Escherichia coli ATCC25922 assessed as bacterial growth inhibition incubated for 24 hrs by Muller Hinton broth based dilution assay. Type of data set: functional.
Data set [6] is described as follows: Hemolytic activity in rabbit RBC incubated for 1 hr by absorbance based microplate reader assay. The class given is toxicity, cell-based, Oryctolagus cuniculus, Erythrocyte. The settings on record: rabbit red blood cells (erythrocytes).
For a further data set, the system named is Pseudomonas aeruginosa. Nature of the data set: Antimicrobial activity against Pseudomonas aeruginosa ATCC9027 assessed as bacterial growth inhibition incubated for 24 hrs by Muller Hinton broth based dilution assay. Type of data set: functional.
Data set [7] deals with Acinetobacter baumannii. Nature of the data set: Antimicrobial activity against Acinetobacter baumannii ATCC17978 assessed as bacterial growth inhibition incubated for 24 hrs by Muller Hinton broth based dilution assay. Type of data set: functional.
Data set [8] has as its system Acinetobacter baumannii. Nature of the data set: Antimicrobial activity against Acinetobacter baumannii R2889 assessed as bacterial growth inhibition incubated for 24 hrs by Muller Hinton broth based dilution assay. The class given is functional.
Data set [9] concerns Klebsiella pneumoniae. Nature of the data set: Antimicrobial activity against Klebsiella pneumoniae ATCC10031 assessed as bacterial growth inhibition incubated for 24 hrs by Muller Hinton broth based dilution assay. Type of data set: functional.
In data set [10] the test system is Klebsiella pneumoniae. Nature of the data set: Antimicrobial activity against Klebsiella pneumoniae ATCC14581 assessed as bacterial growth inhibition incubated for 24 hrs by Muller Hinton broth based dilution assay. The class given is functional.

Molecules are shown by their SMILES. ≈ marks a conversion by molar mass, not a printed value.

The MIC is the lowest concentration that inhibits growth of the organism. Usually HC50 stands for the concentration giving 50% haemolysis. Regarding `Oc1ccc2c(c1)CCCN2`, the MIC with Candida albicans [1], in the data set on Candida albicans [2], with Staphylococcus aureus [3], in the data set on Staphylococcus aureus [4], in the data set on Staphylococcus aureus [5] and with Escherichia coli was greater than 50 µg/mL each time. The HC50 at 1 h in data set [6] is greater than 200 µg/mL.

For the compound `CC(C)=CCN1CCCc2cc(OCCCCCCNC(=N)N)ccc21`, the MIC in the data set on Candida albicans [1] is 12.5 µg/mL (≈ 34.9 µM); in the data set with Candida albicans [2] it was 12.5 µg/mL (≈ 34.9 µM); in the data set with Staphylococcus aureus [3], 1.56 µg/mL (≈ 4.35 µM); in the data set on Staphylococcus aureus [4], 0.78 µg/mL (≈ 2.18 µM); in the data set with Staphylococcus aureus [5] it was 0.78 µg/mL (≈ 2.18 µM); in the data set with Escherichia coli it was 6.25 µg/mL (≈ 17.4 µM). The MIC in the data set with Pseudomonas aeruginosa was found to be 25 µg/mL (≈ 69.7 µM); in the data set with Acinetobacter baumannii [7], 25 µg/mL (≈ 69.7 µM); in the data set with Acinetobacter baumannii [8], 12.5 µg/mL (≈ 34.9 µM); in the data set on Klebsiella pneumoniae [9] it was 6.25 µg/mL (≈ 17.4 µM); in the data set on Klebsiella pneumoniae [10] it was 6.25 µg/mL (≈ 17.4 µM). The same compound returned an HC50 at 1 h in data set [6] of 184 µg/mL.

Turning to `CCCCCCCCCN1CCCc2cc(OCCCCCCCCNC(=N)N)ccc21`, the MIC with Candida albicans [1] was 0.78 µg/mL (≈ 1.75 µM); in the data set on Candida albicans [2], 1.56 µg/mL (≈ 3.51 µM); in the data set with Staphylococcus aureus [3], 3.12 µg/mL (≈ 7.03 µM); with Staphylococcus aureus [4] it was 3.12 µg/mL (≈ 7.03 µM); in the data set on Staphylococcus aureus [5], 3.12 µg/mL (≈ 7.03 µM); with Escherichia coli it was 25 µg/mL (≈ 56.2 µM). The compound further registered an HC50 at 1 h in data set [6] greater than 200 µg/mL.

Take `CCCCCCCCCN1CCCc2cc(OCC(=O)N[C@@H](CCCNC(=N)N)C(=O)N[C@@H](CCCNC(=N)N)C(N)=O)ccc21`: the MIC was greater than 50 µg/mL in the data set on Candida albicans [1]; 50 µg/mL (≈ 77.5 µM) in the data set on Candida albicans [2]; 3.12 µg/mL (≈ 4.85 µM) in the data set on Staphylococcus aureus [3]; 3.12 µg/mL (≈ 4.85 µM) with Staphylococcus aureus [4]; 3.12 µg/mL (≈ 4.85 µM) in the data set on Staphylococcus aureus [5]; 25 µg/mL (≈ 38.8 µM) in the data set on Escherichia coli. In addition, the MIC in the data set on Pseudomonas aeruginosa came out at 25 µg/mL (≈ 38.8 µM); in the data set with Acinetobacter baumannii [7] it was 12.5 µg/mL (≈ 19.4 µM); in the data set on Acinetobacter baumannii [8], 50 µg/mL (≈ 77.5 µM); in the data set with Klebsiella pneumoniae [9] it was 6.25 µg/mL (≈ 9.69 µM); with Klebsiella pneumoniae [10], 6.25 µg/mL (≈ 9.69 µM). Moreover, the HC50 at 1 h in [6] is greater than 200 µg/mL.

Turning to `CCCN(CCC)CCCCOc1ccc2c(c1)CCCN2CC=C(C)C`, the MIC was greater than 50 µg/mL with Candida albicans [1]; greater than 50 µg/mL in the data set on Candida albicans [2]; 25 µg/mL (≈ 67.1 µM) in the data set on Staphylococcus aureus [3]; 25 µg/mL (≈ 67.1 µM) in the data set with Staphylococcus aureus [4]; 50 µg/mL (≈ 134 µM) with Staphylococcus aureus [5]; greater than 50 µg/mL in the data set on Escherichia coli. This compound gave an HC50 at 1 h in data set [6] greater than 200 µg/mL.

`CC(C)=CCN1CCCc2cc(OCCCCNC(=N)N)ccc21`: the MIC in the data set with Candida albicans [1] is greater than 50 µg/mL; in the data set on Candida albicans [2], greater than 50 µg/mL; in the data set on Staphylococcus aureus [3], 3.12 µg/mL (≈ 9.46 µM); in the data set with Staphylococcus aureus [4], 1.56 µg/mL (≈ 4.72 µM); in the data set on Staphylococcus aureus [5], 3.12 µg/mL (≈ 9.46 µM); with Escherichia coli, 25 µg/mL (≈ 75.6 µM). Besides, the HC50 at 1 h in [6] is greater than 200 µg/mL.

Regarding `CC(C)=CCN1CCCc2cc(OCCCCNCCN(CCN)CCN)ccc21`, the MIC is greater than 50 µg/mL in the data set with Candida albicans [1]; 50 µg/mL (≈ 120 µM) in the data set with Candida albicans [2]; 12.5 µg/mL (≈ 29.9 µM) in the data set with Staphylococcus aureus [3]; 6.25 µg/mL (≈ 15 µM) with Staphylococcus aureus [4]; 6.25 µg/mL (≈ 15 µM) with Staphylococcus aureus [5]; 50 µg/mL (≈ 120 µM) in the data set on Escherichia coli. This compound also returned an HC50 at 1 h in data set [6] greater than 200 µg/mL.

For `O=C(O)c1cn(C2CC2)c2cc(N3CCNCC3)c(F)cc2c1=O` [CIPROFLOXACIN], the MIC with Staphylococcus aureus [3] was 0.39 µg/mL (≈ 1.18 µM); with Staphylococcus aureus [4], 0.39 µg/mL (≈ 1.18 µM); in the data set with Staphylococcus aureus [5], 0.39 µg/mL (≈ 1.18 µM); in the data set on Escherichia coli, 0.049 µg/mL (≈ 0.148 µM); with Pseudomonas aeruginosa, 0.195 µg/mL (≈ 0.589 µM); in the data set with Acinetobacter baumannii [7], 0.39 µg/mL (≈ 1.18 µM). Besides, the MIC with Acinetobacter baumannii [8] was found to be 0.78 µg/mL (≈ 2.35 µM); in the data set on Klebsiella pneumoniae [9], 0.195 µg/mL (≈ 0.589 µM); in the data set with Klebsiella pneumoniae [10], 0.195 µg/mL (≈ 0.589 µM).

Consider `CC(C)=CCN1CCCc2cc(OCCCCCCCCCCBr)ccc21`, for which the MIC in the data set on Candida albicans [1] worked out at 12.5 µg/mL (≈ 28.6 µM); in the data set with Candida albicans [2], 12.5 µg/mL (≈ 28.6 µM); in the data set with Staphylococcus aureus [3] it was 3.12 µg/mL (≈ 7.16 µM); in the data set on Staphylococcus aureus [4], 3.12 µg/mL (≈ 7.16 µM); with Staphylococcus aureus [5] it was 3.12 µg/mL (≈ 7.16 µM); with Escherichia coli, 25 µg/mL (≈ 57.3 µM). In [6], this compound showed an HC50 at 1 h greater than 200 µg/mL.

As to `CC(C)=CCN1CCCc2cc(OCCCCCCCCCCCCBr)ccc21`, the minimal inhibitory concentration (MIC) in the data set on Candida albicans [1], in the data set with Candida albicans [2], with Staphylococcus aureus [3], in the data set on Staphylococcus aureus [4], in the data set on Staphylococcus aureus [5] and in the data set on Escherichia coli was greater than 50 µg/mL each time. Further, the 50% haemolytic concentration (HC50) at 1 h in data set [6] is greater than 200 µg/mL.

Take `CC(C)=CCN1CCCc2cc(OCCCCN3CCCC3)ccc21`: the MIC in the data set on Candida albicans [1], in the data set with Candida albicans [2], in the data set on Staphylococcus aureus [3], in the data set with Staphylococcus aureus [4], with Staphylococcus aureus [5] and in the data set with Escherichia coli was greater than 50 µg/mL each time. In data set [6], this compound had an HC50 at 1 h greater than 200 µg/mL.
